Paper PMC10073126, “Levosimendan inhibits disulfide tau oligomerization and ameliorates tau pathology in Tau^P301L-BiFC mice” (Experimental & Molecular Medicine, 2023)

Columns and labels:
[1] = test system: tau; test: Tau immunoblot of primary hippocampal neuron lysates; format: cell-based, rat; conditions: primary neurons, tauK18^P301L; for Level of disulfide-linked tau oligomers compared to basal: nonreducing SDS-PAGE, control 1.8 ± 0.3-fold
Description: Band intensity was quantified using ImageJ software (NIH). All data were normalized to β-actin.
Primary hippocampal neurons were isolated from Day 18 embryonic Sprague‒Dawley rat brains as described previously. The neurons were seeded at a density of 3.5 × 10^5 cells per well on a poly-D-lysine-coated 6-well plate and maintained in neurobasal medium at 37 °C in a humidified atmosphere of 5% CO2. The neurobasal medium contained 2% B27 supplement, 0.5 mM GlutaMAX, 100 units/mL penicillin, and 100 μg/mL streptomycin. Every 3 days, 50% of the medium was replaced with fresh neurobasal medium. At DIV10, neurons were incubated with MB, LMTM (3 µM), or levosimendan (10 µM) in the presence of tauK18^P301L (10 µg/mL) for 48 h.

[2] = target: T1, tauK18 (Homo sapiens, UniProt P10636); test: TauK18 oligomerization assay in vitro (SDS-PAGE); format: biochemical; conditions: 5 h, nonreducing SDS-PAGE, DMSO control 50 ± 1.1%
T1 construct: under in vitro conditions using a purified tauK18 fragment; 6xHis; made in house; host or cells: E. coli BL21 (DE3)
T1 sequence (P10636 561-685 limits assumed): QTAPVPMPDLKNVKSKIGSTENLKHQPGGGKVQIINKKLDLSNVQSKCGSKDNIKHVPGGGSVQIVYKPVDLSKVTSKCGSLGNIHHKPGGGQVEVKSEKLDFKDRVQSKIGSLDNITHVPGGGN
Description: To induce tau oligomerization, tauK18 (0.5 mg/mL dissolved in PBS, pH 7.4) was incubated with each drug in the presence of DTT (100 μM) and heparin (0.1 mg/mL) at RT for 5 h with vigorous shaking. Then, tau oligomers were separated on 4–20% SDS‒PAGE gels under reducing and nonreducing conditions and visualized by Coomassie blue staining.

[3] = target: T1, tauK18; test: In vitro tau disaggregation assay (thioflavin S); format: biochemical; conditions: preformed tauK18 aggregates, 4 days; read-out: EC50, tau disaggregation (ThS)
Description: To evaluate the inhibitory effect of drugs on tau aggregation, tauK18 protein (0.5 mg/mL) was incubated with each drug at various concentrations in the presence of DTT (100 μM) and heparin (0.1 mg/mL) at 37 °C for 5 days with vigorous shaking (220 rpm). For the tau disaggregation assay, the preformed aggregation mixture of tauK18 was incubated with each drug at 37 °C for 4 days with vigorous shaking (220 rpm). On the final day of incubation, the level of β-sheet aggregates was evaluated by thioflavin S (ThS) assay. For the ThS assay, 5 μL of each mixture was transferred to a black 384-well plate with 45 μL of PBS containing 10 μM ThS. ThS fluorescence (λex = 430 nm, and λem = 500 nm) was measured by using a Flexstation2 spectrophotometer (Molecular Devices).

[4] = test system: Tau^P301L-BiFC mice; test: Novel object recognition test; format: in vivo, mouse; conditions: 5 mg/kg i.p., three times a week, 4 months; vehicle TG 0.49, WT 0.74
Description: (§1) For drug administration, LMTM and levosimendan were dissolved in PBS containing 40% polyethylene glycol (PEG; Sigma). Nine-month-old Tau^P301L-BiFC mice were intraperitoneally administered each drug for 4 months, three times a week, at a dosage of 5 mg/kg (n = 11 per group). Vehicle-treated Tau^P301L-BiFC mice and age-matched wild-type mice were used as control groups. Behavioral assessments were conducted as described below for one month from the end of drug administration. All mice were sacrificed at the age of 14 months for pathological analysis.
The novel object recognition test was performed as described previously. Briefly, for habituation, mice (n = 9 per group) were individually placed in the center of an open field arena (40 × 40 cm) and could freely explore for 15 min. The next day, in the training trial (familiarization phase), the mice could explore two identical objects in the open field for 10 min. […] The exploration time for the familiar (old) or the new (novel) object during the recognition phase was recorded using a Noldus EthoVision XT video tracking system. Memory was operationally defined by the recognition index calculated by dividing the time an animal spent exploring the novel object or old object by the total time spent exploring objects in the testing period. The exploration time was measured when the mouse pointed toward the object in the vicinity of the object.

[5] = test system: Tau^P301L-BiFC mice; test: Y-maze test; format: in vivo, mouse; conditions: 5 mg/kg i.p., three times a week, 4 months; vehicle TG 52.8 ± 2.6%
Description: as §1
Mice (n = 11 per group) were tested for spontaneous alternation behavior in a Y-shaped maze (60 cm in length of each arm, 20 cm in depth) using a standard protocol. Spontaneous alternation for 8 min was calculated as the proportion of alternations. Alteration (%) was defined as consecutive entries in three different arms (ABCs) divided by the number of possible alterations (total arm entries minus 2)[43].

[6] = test system: Tau^P301L-BiFC mice; test: Passive avoidance test; format: in vivo, mouse; conditions: 5 mg/kg i.p., three times a week, 4 months; compared with vehicle-treated TG
Description: as §1
The passive avoidance test was performed as described previously[44] with the following modifications. Mice (n = 8 per group) were adapted in the passive avoidance chamber (Gemini) for 10 min and then returned to their home cages. The chamber is composed of a light compartment and a dark compartment separated by a connecting gate. The following day, the mice were placed in the light compartment, and the gate was opened after 30 s. When mice entered the dark compartment, the gate was closed, and an electrical foot shock (3 mA) was delivered for 2 s. The mice were left in the dark compartment for 30 s after the foot shock so that they associated the environment with the aversive stimulus. The mice were then returned to their home cages. […] The step-through latency, the time required for mice to enter the dark compartment, was measured up to 540 s.

[7] = test system: Tau^P301L-BiFC mice; test: AT8 immunofluorescence of brain tissue slices; format: in vivo, mouse; conditions: 5 mg/kg i.p., 4 months
Description: as §1
For immunofluorescence image analysis, brain tissue slices (n = 6–8 per group) were stained with AT8 (pS202/T205) antibody (1:200, Invitrogen). The primary antibody was detected using Alexa Flour 633-conjugated anti-mouse antibody (1:500, Abcam). Fluorescence images (λex = 620–640 nm and λem = 650–700 nm) were acquired using Axio Scan. Z1 (ZEISS).

| SMILES | Level of disulfide-linked tau oligomers compared to basal ([1]; 10 μM) [fold] | Total tau level compared to basal ([1]; 10 μM, 48 h, control 1.5 ± 0.1-fold) [fold] | Tau phosphorylation at S199 compared to basal ([1]; 10 μM, 48 h, control 1.7 ± 0.1-fold) [fold] | Tau phosphorylation at S396 compared to basal ([1]; 10 μM, 48 h, control 2.0 ± 0.3-fold) [fold] | Level of disulfide-linked tau oligomers (of total tau) ([2]; 10 μM) [%] | Level of disulfide-linked tau oligomers (of total tau) ([2]; 30 μM) [%] | Level of disulfide-linked tau oligomers (of total tau) ([2]; 100 μM) [%] | EC50 [3] [µM] | Recognition index (RI) for a novel object [4] | Percent alternation [5] [%] | Latency of entering the dark compartment [6] | AT8 immunoreactivity in the cortex compared to vehicle-treated group [7] [fold] | AT8 immunoreactivity in the hippocampus compared to vehicle-treated group [7] [fold] | Level of disulfide-linked tau oligomers compared to basal ([1]; 3 μM) [fold] |
| --- | --- | --- | --- | --- | --- | --- | --- | --- | --- | --- | --- | --- | --- | --- |
| C[C@@H]1CC(=O)NN=C1c1ccc(NN=C(C#N)C#N)cc1 [Levosimendan] | 0.5 ± 0.1 | 1.0 ± 0.1 | 0.9 ± 0.1 | 0.9 ± 0.1 | 15.0 ± 6.0 | 15.7 ± 7.8 | 12.3 ± 15.0 | 3.7 ± 0.2 | 0.69 | 70.4 ± 4.2 | delayed latency or not entering the chamber | 0.4 ± 0.1 | 0.4 ± 0.2 | – |
| CN(C)c1ccc2c(c1)Sc1cc(N(C)C)ccc1N2.CS(=O)(=O)O.CS(=O)(=O)O [LMTM, leucomethylene blue mesylate] | – | – | – | – | – | – | 79.2 ± 0.8 | 3.4 ± 0.2 | 0.59 | 68.9 ± 3.5 | did not show significant improvement | 0.6 ± 0.2 | 0.5 ± 0.2 | 2.4 ± 0.3 |
